Measurements taken from ChEMBL document CHEMBL3039007, “Structure-based identification of OATP1B1/3 inhibitors” (Mol Pharmacol, 2013).

Assays:
[1] = target: T1, Solute carrier organic anion transporter family member 1B3 (Homo sapiens, UniProt Q9NPD5)
T1 sequence (Q9NPD5 whole entry): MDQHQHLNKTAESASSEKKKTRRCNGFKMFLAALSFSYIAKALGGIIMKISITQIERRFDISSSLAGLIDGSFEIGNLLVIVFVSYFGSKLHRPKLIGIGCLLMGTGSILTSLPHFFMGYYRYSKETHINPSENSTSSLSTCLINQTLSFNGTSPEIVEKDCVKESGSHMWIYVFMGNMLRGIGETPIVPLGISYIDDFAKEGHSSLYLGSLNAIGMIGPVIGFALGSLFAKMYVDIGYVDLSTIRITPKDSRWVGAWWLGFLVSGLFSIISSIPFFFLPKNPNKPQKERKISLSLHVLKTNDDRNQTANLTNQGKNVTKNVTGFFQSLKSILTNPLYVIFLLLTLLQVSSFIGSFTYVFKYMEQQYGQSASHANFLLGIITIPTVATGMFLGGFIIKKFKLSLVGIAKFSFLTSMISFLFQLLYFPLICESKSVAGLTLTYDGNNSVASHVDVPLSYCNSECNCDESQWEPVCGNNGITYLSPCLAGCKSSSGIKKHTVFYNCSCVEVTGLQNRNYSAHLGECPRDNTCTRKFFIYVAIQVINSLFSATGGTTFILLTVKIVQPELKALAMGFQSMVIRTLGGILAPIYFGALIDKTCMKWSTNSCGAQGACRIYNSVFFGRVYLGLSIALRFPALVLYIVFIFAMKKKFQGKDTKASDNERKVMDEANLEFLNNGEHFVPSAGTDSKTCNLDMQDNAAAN

[2] = target: T1, Solute carrier organic anion transporter family member 1B3; settings: chinese hamster, cho, 10 µM
[3] = target: T2, Solute carrier organic anion transporter family member 1B1 (Homo sapiens, UniProt Q9Y6L6); settings: chinese hamster, cho, 10 µM
T2 sequence (Q9Y6L6 whole entry): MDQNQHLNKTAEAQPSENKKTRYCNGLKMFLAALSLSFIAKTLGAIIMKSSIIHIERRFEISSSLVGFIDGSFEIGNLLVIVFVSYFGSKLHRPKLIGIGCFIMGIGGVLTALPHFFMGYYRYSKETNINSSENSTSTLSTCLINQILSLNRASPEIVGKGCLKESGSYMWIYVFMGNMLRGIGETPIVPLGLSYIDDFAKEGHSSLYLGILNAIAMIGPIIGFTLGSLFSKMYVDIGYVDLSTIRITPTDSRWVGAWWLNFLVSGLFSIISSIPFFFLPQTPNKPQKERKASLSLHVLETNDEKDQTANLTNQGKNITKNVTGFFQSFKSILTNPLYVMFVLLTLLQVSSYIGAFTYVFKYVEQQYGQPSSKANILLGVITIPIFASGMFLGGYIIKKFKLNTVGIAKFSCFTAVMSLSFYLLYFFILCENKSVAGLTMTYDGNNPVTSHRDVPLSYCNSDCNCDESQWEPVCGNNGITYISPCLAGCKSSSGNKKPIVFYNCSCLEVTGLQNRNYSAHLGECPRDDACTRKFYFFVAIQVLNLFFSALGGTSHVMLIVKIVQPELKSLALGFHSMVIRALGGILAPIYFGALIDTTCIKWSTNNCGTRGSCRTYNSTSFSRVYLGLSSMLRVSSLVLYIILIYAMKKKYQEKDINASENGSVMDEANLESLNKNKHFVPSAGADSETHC

[4] = target: T2, Solute carrier organic anion transporter family member 1B1
[5] = target: T2, Solute carrier organic anion transporter family member 1B1; remark: listed apart in the source
[6] = target: T1, Solute carrier organic anion transporter family member 1B3; remark: listed apart in the source

SMILES	Ki [1] [nM]	residual activity [2] [%]	residual activity [3] [%]	Ki [4] [nM]	IC50 [5] [nM]	IC50 [6] [nM]
CC(C)CCCC1(C)C=Cc2c(O)c3c(c(CCC(C)C)c2O1)OC12C(CC4CC1C(C)(C)OC2(CCC(C)C(=O)O)C4O)C3=O (stereo not given) [DECAHYDROGAMBOGIC ACID]	1770	18.17	12.82	620	1150	2290
COC(=O)/C(C)=C\CC12OC(C)(C)C3CC(C=C4C(=O)c5c(OC)c6c(c(CC=C(C)C)c5OC431)OC(C)(CCC=C(C)C)C=C6)C2=O (stereo not given) [DIMETHYL GAMBOGATE]	3940	62.06	23.19	1260	2290	5130
C[C@@H]1O[C@H](O[C@@H]2[C@@H](O)[C@H](O[C@@H]3[C@@H](O)[C@@H](O)[C@@H](O[C@H]4[C@@H](OC(=O)[C@]56CCC(C)(C)C[C@@H]5C5=CC[C@@H]7[C@@]8(C)CC[C@H](O[C@@H]9O[C@H](CO)[C@@H](O)[C@H](O)[C@H]9O)C(C)(C)[C@@H]8CC[C@@]7(C)[C@]5(C)C[C@H]6O)OC[C@@H](O)[C@@H]4O)O[C@H]3C)OC[C@H]2O)[C@H](O)[C@H](O)[C@H]1O	4020	17.42	25.14	1820	3310	5250
O=C(O)c1cc2ccccc2c(Cc2c(O)c(C(=O)O)cc3ccccc23)c1O.OCCOCCN1CCN(C(c2ccccc2)c2ccc(Cl)cc2)CC1 [HYDROXYZINE PAMOATE]	940	13.57	12.16	450	813	1230
CC[C@@H](C(=O)[C@@H](C)[C@@H](O)[C@H](C)CCc1ccc(C)c(O)c1C(=O)[O-])[C@H]1O[C@](CC)([C@H]2CC[C@](O)(CC)[C@H](C)O2)C[C@@H]1C.[Na+] [LASALOCID A SODIUM]	590	6.678	10.29	260	479	776
CC(C)=CCC[C@]1(C)C=Cc2c(O)c3c(c(CC=C(C)C)c2O1)O[C@]12C(C[C@@H]4C[C@H]1C(C)(C)O[C@@]2(C/C=C(/C)C(=O)O)C4O)C3=O (stereo not given in full)	2160	4.414	12.48	1100	2000	2820
CC1(C)[C@@H](O)C=C[C@]2(C)[C@H]3CC[C@@]4(C)[C@H](c5ccoc5)OC(=O)[C@H]5O[C@]54[C@]3(C)C(=O)C[C@@H]12	3810	22.22	10.83	1330	2400	5010
CC(=O)OC/C=C(C)/C=C/C=C(C)/C=C/C1=C(C)CCCC1(C)C [GILRETINOL ACETATE]	3890	23.53	19.44	1220	2240	5010

Next, values leading:

Ki [1] [nM]	residual activity [2] [%]	residual activity [3] [%]	Ki [4] [nM]	IC50 [5] [nM]	IC50 [6] [nM]	SMILES
4080	33.77	7.365	1470	2690	5250	CC(C)C1=CC2=CC[C@@H]3[C@](C)(CCC[C@@]3(C)C(=O)O)[C@H]2CC1 [ABIETIC ACID]
1730	3.626	30.6	650	1170	2240	CC(C)=CCCC1(C)C=Cc2c(O)c3c(c(CC=C(C)C)c2O1)OC12C(=CCCC1C(C)(C)O[C@@]2(C/C=C(\C)C(=O)O)C(=O)O)C3=O (stereo not given in full) [GARCINOLIC ACID]
530	5.392	7.307	380	692	692	COC(=O)C[C@H]1C2(C)CC34OC5(C)O[C@@]6([C@H](OC(C)=O)C(OC(C)=O)[C@]7(C)C(/C(=C(/O)C(C)C)C(=O)O[C@H]7c7ccoc7)[C@@]6(O5)[C@H](OC(C)=O)[C@@]3(O)C2OC(=O)C(C)C)[C@]14C (stereo not given in full) [BUSSEIN]
6500	18.79	31.07	2050	3720	8510	O=C(O[C@@H]1Cc2c(O)cc(O)cc2O[C@@H]1c1cc(O)c(O)c(O)c1-c1c([C@H]2Oc3cc(O)cc(O)c3C[C@H]2O)cc(O)c(O)c1O)c1cc(O)c(O)c(O)c1 [2',2'-BISEPIGALLOCATECHIN MONOGALLATE]
2350	7.433	6.903	2410	4370	3090	CCC(=O)O[C@H]1[C@H](O[C@@H]2[C@@H](C)[C@H](O[C@H]3C[C@@](C)(OC)[C@@H](O)[C@H](C)O3)[C@@H](C)C(=O)O[C@H](CC)[C@@](C)(O)[C@H](O)[C@@H](C)C(=O)[C@H](C)C[C@@]2(C)O)O[C@H](C)C[C@@H]1N(C)C.CCCCCCCCCCCCOS(=O)(=O)O [ERYTHROMYCIN ESTOLATE]
3050	46.1	20.57	480	871	3980	CC(=O)O[C@H]1C[C@@H](OC(C)=O)C(C)(C)[C@@H]2C[C@@H](OC(C)=O)[C@]3(C)[C@H]([C@H](OC(C)=O)C[C@@]4(C)[C@H](c5ccoc5)OC(=O)[C@H]5O[C@@]534)[C@@]12C
3460	25.25	46.4	2070	3800	4470	O=C(O[C@@H]1Cc2c(O)cc(O)cc2O[C@@H]1c1ccc(O)c(O)c1)c1cc(O)c(O)c(O)c1 [EPICATECHIN GALLATE]
420	1.823	10.9	630	1150	550	Cc1cc(O)c(C=O)c2c1C(=O)Oc1c(C)c(O)c3c(c1O2)C(O)OC3=O (stereo not given) [NORSTICTIC ACID]
2550	48.28	54.82	3440	6310	3310	CC1(C)C(=O)CC[C@]2(C)[C@@H]1C[C@@H](O)[C@]1(C)C3=CC(=O)O[C@H](c4ccoc4)[C@@]3(C)CC[C@@H]21
1610	30.5	3.592	1670	3020	2090	CCOC(=O)CCC(=O)O[C@H]1[C@H](O[C@@H]2[C@@H](C)[C@H](O[C@H]3C[C@@](C)(OC)[C@@H](O)[C@H](C)O3)[C@@H](C)C(=O)O[C@H](CC)[C@@](C)(O)[C@H](O)[C@@H](C)C(=O)[C@H](C)C[C@@]2(C)O)O[C@H](C)C[C@@H]1N(C)C [ERYTHROMYCIN ETHYLSUCCINATE]
1840	14.63	7.804	80	145	2400	COC(=O)c1c(C)c2c(c(C)c1O)OC(=O)c1c(C)c(Cl)c(O)c(Cl)c1O2 [LEOIDIN]
2020	15.01	4.093	60	102	2630	COC(=O)c1c(OC)cc2c(c1C)Oc1c(Cl)c(O)c(Cl)c(C)c1C(=O)O2 [GANGALEOIDIN]
